Patent US11787825B2 (priority 2021, dated 2023)
Like-named read-outs stand apart in the source and are kept apart here.

[1] = 0.1N HCL, 1.0% DMSO, 24-hour incubation at ambient temperature, maximum theoretical compound concentration 100 μM
[2] = 1×PBS buffer (pH 7.4), 1.0% DMSO, 24-hour incubation at ambient temperature, maximum theoretical compound concentration 100 μM

| SMILES | pH 2 solubility [1] | pH 7 solubility [2] | pH 2 solubility (pH 2) | pH 7 solubility (pH 7.4) |
| --- | --- | --- | --- | --- |
| C[C@H](CC(=O)O)C(=O)N(c1nn(CC(F)(F)F)c2c(-c3ccc(C#CC(C)(C)S(C)(=O)=O)nc3[C@H](Cc3cc(F)cc(F)c3)NC(=O)Cn3nc(C(F)(F)F)c4c3C(F)(F)[C@@H]3C[C@H]43)ccc(Cl)c12)S(C)(=O)=O [Compound 26, (R)-4-(N-(4-chloro-7-(2-((S)-1-(2-((3bS,4aR)-5,5-difluoro-3-(trifluoromethyl)-3b,4,4a,5-tetrahydro-1H-cyclopropa[3,4]cyclopenta[1,2-c]pyrazol-1-yl)acetamido)-2-(3,5-difluorophenyl)ethyl)-6-(3-methyl-3-(methylsulfonyl)but-1-yn-1-yl)pyridin-3-yl)-1-(2,2,2-trifluoroethyl)-1H-indazol-3-yl)methylsulfonamido)-3-methyl-4-oxobutanoic acid] | 1/1 μM | 1/1 μM |  |  |
| CC(C)[C@@H](C(=O)N(c1nn(CC(F)(F)F)c2c(-c3ccc(C#CC(C)(C)S(C)(=O)=O)nc3[C@H](Cc3cc(F)cc(F)c3)NC(=O)Cn3nc(C(F)(F)F)c4c3C(F)(F)[C@@H]3C[C@H]43)ccc(Cl)c12)S(C)(=O)=O)N(C)C [Compound 8, N-(4-chloro-7-(2-((S)-1-(2-((3bS,4aR)-5,5-difluoro-3-(trifluoromethyl)-3b,4,4a,5-tetrahydro-1H-cyclopropa[3,4]cyclopenta[1,2-c]pyrazol-1-yl)acetamido)-2-(3,5-difluorophenyl)ethyl)-6-(3-methyl-3-(methylsulfonyl)but-1-yn-1-yl)pyridin-3-yl)-1-(2,2,2-trifluoroethyl)-1H-indazol-3-yl)-2-(dimethylamino)-3-methyl-N-(methylsulfonyl)butanamide] | 51 μM | 1 μM |  |  |
| CNCC(=O)N(c1nn(CC(F)(F)F)c2c(-c3ccc(C#CC(C)(C)S(C)(=O)=O)nc3[C@H](Cc3cc(F)cc(F)c3)NC(=O)Cn3nc(C(F)(F)F)c4c3C(F)(F)[C@@H]3C[C@H]43)ccc(Cl)c12)S(C)(=O)=O [Compound 19, (N-(4-chloro-7-(2-((S)-1-(2-((3bS,4aR)-5,5-difluoro (trifluoromethyl)-3b,4,4a,5-tetrahydro-1H-cyclopropa[3,4]cyclopenta[1,2-c]pyrazolyl)acetamido)-2-(3,5-difluorophenyl)ethyl)-6-(3-methyl-3-(methylsulfonyl)but-1-ynyl)pyridin-3-yl)-1-(2,2,2-trifluoroethyl)-1H-indazol-3-yl)-2-(methylamino)-N-(methylsulfonyl)acetamide)] | 37 μM | 6 μM |  |  |
| CC(C)(C#Cc1ccc(-c2ccc(Cl)c3c(N(C(=O)CN)S(C)(=O)=O)nn(CC(F)(F)F)c23)c([C@H](Cc2cc(F)cc(F)c2)NC(=O)Cn2nc(C(F)(F)F)c3c2C(F)(F)[C@@H]2C[C@H]32)n1)S(C)(=O)=O [Compound 12, 2-amino-N-(4-chloro-7-(2-((S)-1-(2-((3bS,4aR)-5,5-difluoro (trifluoromethyl)-3b,4,4a,5-tetrahydro-1H-cyclopropa[3,4]cyclopenta[1,2-c]pyrazolyl)acetamido)-2-(3,5-difluorophenyl)ethyl)-6-(3-methyl-3-(methylsulfonyl)but-1-ynyl)pyridin-3-yl)-1-(2,2,2-trifluoroethyl)-1H-indazol-3-yl)-N-(methylsulfonyl)acetamide] | 65 μM | 8 μM |  |  |
| COC(=O)N[C@@H](C)C(=O)N(c1nn(CC(F)(F)F)c2c(-c3ccc(C#CC(C)(C)S(C)(=O)=O)nc3[C@H](Cc3cc(F)cc(F)c3)NC(=O)Cn3nc(C(F)(F)F)c4c3C(F)(F)[C@@H]3C[C@H]43)ccc(Cl)c12)S(C)(=O)=O [Compound 7, methyl ((5)-1-(N-(4-chloro-7-(2-((S)-1-(2-((3bS,4aR)-5,5-difluoro-3-(trifluoromethyl)-3b,4,4a,5-tetrahydro-1H-cyclopropa[3,4]cyclopenta[1,2-c]pyrazol-1-yl)acetamido)-2-(3,5-difluorophenyl)ethyl)-6-(3-methyl-3-(methylsulfonyl)but-1-yn-1-yl)pyridin-3-yl)-1-(2,2,2-trifluoroethyl)-1H-indazol-3-yl)methylsulfonamido)-1-oxopropan-2-yl)carbamate] | 1/1 μM | 1/1 μM |  |  |
| Cc1cc(CC(=O)NCC(=O)O)c(C(C)(C)CC(=O)N(c2nn(CC(F)(F)F)c3c(-c4ccc(C#CC(C)(C)S(C)(=O)=O)nc4[C@H](Cc4cc(F)cc(F)c4)NC(=O)Cn4nc(C(F)(F)F)c5c4C(F)(F)[C@@H]4C[C@H]54)ccc(Cl)c23)S(C)(=O)=O)c(OP(=O)(O)O)c1 [Compound 63, (2-(2-(4-(N-(4-chloro-7-(2-((S)-1-(2-((3bS,4aR)-5,5-difluoro-3-(trifluoromethyl)-3b,4,4a,5-tetrahydro-1H-cyclopropa[3,4]cyclopenta[1,2-c]pyrazol-1-yl)acetamido)-2-(3,5-difluorophenyl)ethyl)-6-(3-methyl-3-(methylsulfonyl)but-1-yn-1-yl)pyridin-3-yl)-1-(2,2,2-trifluoroethyl)-1H-indazol-3-yl)methylsulfonamido)-2-methyl-4-oxobutan-2-yl)-5-methyl-3-(phosphonooxy)phenyl)acetyl)glycine] |  |  | 1/85 μM | 1/85 μM |
| CN(C)CCCC[C@H](N)C(=O)N(c1nn(CC(F)(F)F)c2c(-c3ccc(C#CC(C)(C)S(C)(=O)=O)nc3[C@H](Cc3cc(F)cc(F)c3)NC(=O)Cn3nc(C(F)(F)F)c4c3C(F)(F)[C@@H]3C[C@H]43)ccc(Cl)c12)S(C)(=O)=O [Compound 16, ((S)-2-amino-N-(4-chloro-7-(2-((S)-1-(2-((3bS,4aR)-5,5-difluoro-3-(trifluoromethyl)-3b,4,4a,5-tetrahydro-1H-cyclopropa[3,4]cyclopenta[1,2-c]pyrazolyl)acetamido)-2-(3,5-difluorophenyl)ethyl)-6-(3-methyl-3-(methylsulfonyl)but-1-ynyl)pyridin-3-yl)-1-(2,2,2-trifluoroethyl)-1H-indazol-3-yl)-6-(dimethylamino)-N-(methylsulfonyl)hexanamide)] | 92 μM | 20 μM |  |  |
| CC(C)(C#Cc1ccc(-c2ccc(Cl)c3c(N(C(=O)CNC(=O)C(=O)O)S(C)(=O)=O)nn(CC(F)(F)F)c23)c([C@H](Cc2cc(F)cc(F)c2)NC(=O)Cn2nc(C(F)(F)F)c3c2C(F)(F)[C@@H]2C[C@H]32)n1)S(C)(=O)=O [Compound 13, 2-((2-(N-(4-chloro-7-(2-((S)-1-(2-((3bS,4aR)-5,5-difluoro-3-(trifluoromethyl)-3b,4,4a,5-tetrahydro-1H-cyclopropa[3,4]cyclopenta[1,2-c]pyrazol-1-yl)acetamido)-2-(3,5-difluorophenyl)ethyl)-6-(3-methyl-3-(methylsulfonyl)but-1-yn-1-yl)pyridin-3-yl)-1-(2,2,2-trifluoroethyl)-1H-indazol-3-yl)methylsulfonamido)-2-oxoethyl)amino)-2-oxoacetic acid] | 1 μM | 90 μM |  |  |
| CC(C)(CC(=O)N(c1nn(CC(F)(F)F)c2c(-c3ccc(C#CC(C)(C)S(C)(=O)=O)nc3[C@H](Cc3cc(F)cc(F)c3)NC(=O)Cn3nc(C(F)(F)F)c4c3C(F)(F)[C@@H]3C[C@H]43)ccc(Cl)c12)S(C)(=O)=O)c1c(CC(=O)N[C@@H](CC(=O)O)C(=O)O)cccc1OP(=O)(O)O [Compound 71, (2-(2-(4-(N-(4-chloro-7-(2-((S)-1-(2-((3bS,4aR)-5,5-difluoro-3-(trifluoromethyl)-3b,4,4a,5-tetrahydro-1H-cyclopropa[3,4]cyclopenta[1,2-c]pyrazol-1-yl)acetamido)-2-(3,5-difluorophenyl)ethyl)-6-(3-methyl-3-(methylsulfonyl)but-1-yn-1-yl)pyridin-3-yl)-1-(2,2,2-trifluoroethyl)-1H-indazol-3-yl)methylsulfonamido)-2-methyl-4-oxobutan-2-yl)-3-(phosphonooxy)phenyl)acetyl)-L-aspartic acid] |  |  | 2/88 μM | 2/88 μM |
| COCCOCCOCCOCCOCC(=O)N(c1nn(CC(F)(F)F)c2c(-c3ccc(C#CC(C)(C)S(C)(=O)=O)nc3[C@H](Cc3cc(F)cc(F)c3)NC(=O)Cn3nc(C(F)(F)F)c4c3C(F)(F)[C@@H]3C[C@H]43)ccc(Cl)c12)S(C)(=O)=O [Compound 9, N-(4-chloro-7-(2-((S)-1-(2-((3bS,4aR)-5,5-difluoro-3-(trifluoromethyl)-3b,4,4a,5-tetrahydro-1H-cyclopropa[3,4]cyclopenta[1,2-c]pyrazol-1-yl)acetamido)-2-(3,5-difluorophenyl)ethyl)-6-(3-methyl-3-(methylsulfonyl)but-1-ynyl)pyridin-3-yl)-1-(2,2,2-trifluoroethyl)-1H-indazol-3-yl)-N-(methylsulfonyl)-2,5,8,11,14-pentaoxahexadecan-16-amide] | 1/1 μM | 1/1 μM |  |  |
| CC(C)(C#Cc1ccc(-c2ccc(Cl)c3c(N(C(=O)[C@H](CCC(=O)O)NC(=O)C(=O)O)S(C)(=O)=O)nn(CC(F)(F)F)c23)c([C@H](Cc2cc(F)cc(F)c2)NC(=O)Cn2nc(C(F)(F)F)c3c2C(F)(F)[C@@H]2C[C@H]32)n1)S(C)(=O)=O [Compound 24, (S)-4-(carboxyformamido)-5-(N-(4-chloro-7-(2-((S)-1-(2-((3bS,4aR)-5,5-difluoro-3-(trifluoromethyl)-3b,4,4a,5-tetrahydro-111-cyclopropa[3,4]cyclopenta[1,2-c]pyrazol-1-yl)acetamido)-2-(3,5-difluorophenyl)ethyl)-6-(3-methyl-3-(methylsulfonyl)but-1-yn-1-yl)pyridin-3-yl)-1-(2,2,2-trifluoroethyl)-1H-indazol-3-yl)methylsulfonamido)-5-oxopentanoic acid] | 1 μM | 14 μM |  |  |
